Reference: US5750733A, “Hydroxy containing alkyl glycamides, low foaming detergent compositions comprising such and a process for their manufacture” (Lever Brothers Company, Division of Conopco, Inc., priority 1996, dated 1998)

How the values were obtained:
[1] = Ross-Miles Foam Height of Various Sugar Based Surfactants; details: 0.1% surfactant, 50° C.; for solubility in foam height test (in words): foam height cannot be measured if insoluble; for Initial foam height / Final foam height (10 min.): 0 ppm hardness; for Final foam height (10 min.): after 10 minutes
Method: Since most of the foaming data on surfactants is typically obtained by the Ross-Miles Foam Height Assay (Ross, J. and Miles, G. D. Am Soc. for Testing material Method D1173-63 Philadelphia, Pa. (1953); Oil & Soap (1958)62:1260) the foaming ability of these surfactants were acquired using this method.
In the Ross-Miles method, 200 mL of a surfactant solution contained in a pipette of specified dimensions with a 2.9 -mm-i.d. orifice is allowed to fall 90 cm onto 50 mL of the same solution contained in a cylindrical vessel maintained at a given temperature by means of a water jacket. The height of the foam produced in the cylindrical vessel is read immediately after all the solution has run out of the pipette and then again after a given amount of time.
Using this method, the foam production (initial foam height in mm) and foam stability (final foam height after 10 minutes as measured in mm) were measured at 0.1% sugar surfactant concentration, 50° C. and 0 ppm (parts per million) hardness.

[2] = Micellization and Surface Tension Reduction; type: physicochemical; details: in water
Source text: The appearance and development of micelles are important since detergency (solubilization of soils) by dishwashing liquids, shampoos, detergents, etc., depend on the formation of these aggregates in solution.

[3] = Krafft Point (Water Solubility Test); details: for Krafft Point (0.1%): 0.1% dispersion in water by weight; for water solubility (in words): 0.1% in water, Krafft point test
Method: The temperature at and above which surfactants begin to form micelles instead of precipitates is referred to as the Krafft point (Tk) and at this temperature the solubility of a surfactant becomes equal to its CMC (numerical value at which micelles are formed).
The Krafft point was measured by preparing 650 ml of a 0.1% dispersion of surfactant in water by weight. If the surfactant was soluble at room temperature, the solution was slowly cooled to 0° C. […] If it precipitated out of solution, the temperature at which precipitation occurs was taken as the Krafft point.
If the surfactant was insoluble at room temperature, the dispersion was slowly heated until the solution became homogeneous. It was then slowly cooled until precipitation occurred. The temperature at which the surfactant precipitates out of solution upon cooling was taken as the Krafft point.

[4] = Clarity Enhancement of prototype detergent compositions with sodium lauryl sulfate; type: physicochemical; details: 3% compound with 15.0% sodium lauryl sulfate, room temperature; for Appearance: stored 6 months
Method: The prototype detergent composition is as follows:
Hydroxy Containing Alkyl
Glycamide (or Comparative)
Sodium Chloride 2.0% Viscosity Cobuilder
The above formulations were prepared by admixing the above ingredients in listed order and heating the mixture to about 80° C. with rapid stirring. The mixture was then cooled to about 40° C., placed in a clear jar and stored at room temperature for 6 months.

zein = tested on: zein
Method: The zein solubilization assay was developed to determine the biological effects of surfactants on the skin. The protein is normally insoluble in water, but can be brought into solution by interaction with surfactants. The extent of zein dissolved is related to the irritation potential (M. J. Schwinger, Kolloid-Z.Z. Poly., 233, 848, 1969). The greater the zein solubilization, the greater the irritation potential of that surfactant on the skin.
Thus, a 1% solution of surfactant (30 mls) was added to 1.5 g of zein and stirred at room temperature for 1 hours. Residual zein was collected and dried to constant weight. Differences between starting and residual weight were used to calculate % zein solubilized.

[5] = Foaming of a Prototype Detergent Formulation (Ross Miles Foam Height Method); type: physicochemical; details: for Foam height of formulation, 5 min / Foam height of formulation, 10 min / Foam height of formulation, Initial: formulation with 4% of the compound, 0.4% formulation, 25° C., 18 FH
Source text: A prototype detergent formulation comprising a hydroxy containing alkyl glycamide surfactant was made and tested to an identical formulation containing a non-hydroxy containing alkyl glycamide. The formulation is as follows: […]
C10 -C14 Linear Alkylbenzene Sulfonate
C12 -C15 Alcohol Ethoxylate Containing 7 Units of
Dodecyl 5-Hydroxy D-Glucamide (or Comparative)
Sodium Tripolyphosphate 30
Sodium Carboxymethyl Cellulose

Row | Structure (SMILES) | solubility in foam height test (in words) [1] | Micellization and Surface Tension Reduction [2] | Krafft Point (0.1%) [3] [°C] | water solubility (in words) [3] | Initial foam height [1] [mm] | Final foam height (10 min.) [1] | also measured
1 | CCCCCCCCCCCCNC(=O)[C@H](O)[C@@H](O)[C@H](O)[C@H](O)CO [Dodecyl D-Gluconamide] | Insoluble | No | > 100 | Insoluble | – | – | –
2 | CCCCCCCCCCNC(=O)[C@H](O)[C@@H](O)[C@H](O)[C@H](O)CO [Decyl D-Gluconamide] | – | Yes | 75 | – | 199 | 6 mm | –
3 | CCCCCCCCCCCCNC(=O)[C@@H](O)[C@H](O)[C@@H](O)[C@@H](O)CO [Dodecyl L-Gluconamide] | Insoluble | No | > 100 | Insoluble | – | – | –
4 | CCCCCCCCCCCC(=O)NC[C@H](O)[C@@H](O)[C@H](O)[C@H](O)CO [Dodecyl D-Glucamide, dodecyl D-glucamide] | Insoluble | No | > 100 | Insoluble | – | – | Time to precipitation [4]: ≤ 3 days; Appearance [4]: Precipitate; Time to precipitation ([4]; listed as C12 D-Glucamide): 3 days
5 | CN(C[C@H](O)[C@@H](O)[C@H](O[C@H]1O[C@H](CO)[C@@H](O)[C@H](O)[C@H]1O)[C@H](O)CO)C(=O)CCCCCCCCCCCO [Dodecyl 12-Hydroxy Methyl D-Maltamide, dodecyl 12-hydroxy methyl D-maltamide] | – | Yes | < 21 | – | 57 | Negligible | –
6 | CCCCCCCC(O)CCCC(=O)NC[C@H](O)[C@@H](O)[C@H](O)[C@H](O)CO (stereo partly drawn) [Dodecyl 5-Hydroxy D-Glucamide, dodecyl 5-hydroxy D-glucamide] | – | Yes | 41 | – | 67 | Negligible | % Zein Solubilized (zein): 7%; mildness / zein solubilization (in words) (zein): less zein solubilization; Appearance ([4]; listed as C12 5-Hydroxy D-Glucamide): Clear; Appearance ([4]; listed as dodecyl 5-hydroxy glucamide): stay in solution; foaming of formulation (in words) ([5]; compared to identical formulation with dodecyl methyl D-glucamide): low foaming compared to identical formulations containing dodecyl methyl D-glucamide; Foam height of formulation, 5 min [5]: 94 mm; Foam height of formulation, 10 min [5]: 75 mm; Foam height of formulation, Initial [5]: 125 mm
7 | CCCCCCCCCCCCCCCC(=O)NC[C@H](O)[C@@H](O)[C@H](O)[C@H](O)CO [Hexadecyl D-Glucamide] | Insoluble | No | > 100 | Insoluble | – | – | –
8 | CCCCCCCCCCCC(=O)N(C)C[C@H](O)[C@@H](O)[C@H](O)[C@H](O)CO [Dodecyl Methyl D-Glucamide, dodecyl methyl D-glucamide] | – | Yes | 45 | – | 173 | 157 mm | Foam height of formulation, 5 min [5]: 110 mm; Foam height of formulation, 10 min [5]: 100 mm; Foam height of formulation, Initial [5]: 135 mm

Second part, led by results:

Row | solubility in foam height test (in words) [1] | Micellization and Surface Tension Reduction [2] | Krafft Point (0.1%) [3] [°C] | water solubility (in words) [3] | Initial foam height [1] [mm] | Final foam height (10 min.) [1] | Structure (SMILES) | also measured
9 | – | Yes | 37 | – | 60 | Negligible | CCCCCCCC(O)CCC(=O)NC[C@H](O)[C@@H](O)[C@H](O)[C@H](O)CO (stereo partly drawn) [Undecyl 4-Hydroxy D-Glucamide, undecyl-4-hydroxy D-glucamide] | –
10 | Insoluble | No | > 100 | Insoluble | – | – | CCCCCCCCCCCCCCCCCC(=O)NC[C@H](O)[C@@H](O)[C@H](O)[C@H](O)CO [Octadecyl D-Glucamide] | –
11 | Insoluble | No | > 100 | Insoluble | – | – | CCCCCCCCCCCCCC(=O)NC[C@H](O)[C@@H](O)[C@H](O)[C@H](O)CO [Tetradecyl D-Glucamide] | –
12 | – | Yes | 12 | – | 0 | 0 mm | CCCCCCCCNC(=O)[C@H](O)[C@@H](O)[C@H](O)[C@H](O)CO [Octyl D-Gluconamide] | –
13 | Insoluble | No | > 100 | Insoluble | – | – | CCCCCCCCCCCCCCNC(=O)[C@H](O)[C@@H](O)[C@H](O)[C@H](O)CO [Tetradecyl D-Gluconamide] | –
14 | Insoluble | No | > 100 | Insoluble | – | – | CCCCCCCCCCCCCCCCNC(=O)[C@H](O)[C@@H](O)[C@H](O)[C@H](O)CO [Hexadecyl D-Gluconamide] | –
